What was measured:
Klebsiella pneumoniae [1] = experiment: Toxicity in Klebsiella pneumoniae ATCC 13883 up to 32 uM measured after 16 hrs; assay type: organism-based
Klebsiella pneumoniae [2] = experiment: Potentiation of methicillin-induced antibacterial activity against Klebsiella pneumoniae ATCC 13883 assessed as minimum modulatory concentration up to 32 uM measured after 16 hrs in presence of MIC/4 methicillin; assay type: functional; conditions: ATCC 13883, 16 h, read-out: MEC
Escherichia coli [3] = experiment: Potentiation of tetracycline-induced antibacterial activity against Escherichia coli ATCC 43894 assessed as minimum modulatory concentration up to 32 uM measured after 16 hrs in presence of MIC/4 tetracycline; assay type: functional; conditions: ATCC 43894, 16 h, read-out: MEC
Escherichia coli [4] = experiment: Potentiation of geneticin-induced antibacterial activity against Escherichia coli ATCC 43894 assessed as minimum modulatory concentration up to 32 uM measured after 16 hrs in presence of MIC/4 geneticin; assay type: functional; conditions: ATCC 43894, 16 h, read-out: MEC
Klebsiella pneumoniae [5] = experiment: Potentiation of erythromycin-induced antibacterial activity against Klebsiella pneumoniae ATCC 13883 assessed as minimum modulatory concentration up to 32 uM measured after 16 hrs in presence of MIC/4 erythromycin; assay type: functional; conditions: ATCC 13883, 16 h, read-out: MEC
Streptococcus pyogenes [6] = experiment: Potentiation of methicillin-induced antibacterial activity against Streptococcus pyogenes ATCC 14289 assessed as minimum modulatory concentration up to 32 uM measured after 16 hrs in presence of MIC/4 methicillin; assay type: functional; conditions: ATCC 14289, 16 h, read-out: MEC
Klebsiella pneumoniae [7] = experiment: Potentiation of geneticin-induced antibacterial activity against Klebsiella pneumoniae ATCC 13883 assessed as minimum modulatory concentration up to 32 uM measured after 16 hrs in presence of MIC/4 geneticin; assay type: functional; conditions: ATCC 13883, 16 h, read-out: MEC
Staphylococcus aureus [8] = experiment: Potentiation of erythromycin-induced antibacterial activity against Staphylococcus aureus ATCC 33592 assessed as minimum modulatory concentration up to 32 uM measured after 16 hrs in presence of MIC/4 erythromycin; assay type: functional; conditions: ATCC 33592, 16 h, read-out: MEC
Escherichia coli [9] = experiment: Potentiation of erythromycin-induced antibacterial activity against Escherichia coli ATCC 43894 assessed as minimum modulatory concentration up to 32 uM measured after 16 hrs in presence of MIC/4 erythromycin; assay type: functional; conditions: ATCC 43894, 16 h, read-out: MEC
Staphylococcus aureus [10] = experiment: Potentiation of geneticin-induced antibacterial activity against Staphylococcus aureus ATCC 33592 assessed as minimum modulatory concentration up to 32 uM measured after 16 hrs in presence of MIC/4 geneticin; assay type: functional; conditions: ATCC 33592, 16 h, read-out: MEC
Pseudomonas aeruginosa [11] = experiment: Potentiation of erythromycin-induced antibacterial activity against Pseudomonas aeruginosa ATCC BAA-2108 assessed as minimum modulatory concentration up to 32 uM measured after 16 hrs in presence of MIC/4 erythromycin; assay type: functional; conditions: ATCC BAA-2108, 16 h, read-out: MEC
Escherichia coli [12] = experiment: Potentiation of methicillin-induced antibacterial activity against Escherichia coli ATCC 43894 assessed as minimum modulatory concentration up to 32 uM measured after 16 hrs in presence of MIC/4 methicillin; assay type: functional; conditions: ATCC 43894, 16 h, read-out: MEC
Enterococcus faecium [13] = experiment: Potentiation of geneticin-induced antibacterial activity against Enterococcus faecium ATCC 700221 assessed as minimum modulatory concentration up to 32 uM measured after 16 hrs in presence of MIC/4 geneticin; assay type: functional; conditions: ATCC 700221, 16 h, read-out: MEC
Klebsiella pneumoniae [14] = experiment: Potentiation of ciprofloxacin-induced antibacterial activity against Klebsiella pneumoniae ATCC 13883 assessed as minimum modulatory concentration up to 32 uM measured after 16 hrs in presence of MIC/4 ciprofloxacin; assay type: functional; conditions: ATCC 13883, 16 h, read-out: MEC
Pseudomonas aeruginosa [15] = experiment: Potentiation of methicillin-induced antibacterial activity against Pseudomonas aeruginosa ATCC BAA-2108 assessed as minimum modulatory concentration up to 32 uM measured after 16 hrs in presence of MIC/4 methicillin; assay type: functional; conditions: ATCC BAA-2108, 16 h, read-out: MEC
Klebsiella pneumoniae [16] = experiment: Potentiation of tetracycline-induced antibacterial activity against Klebsiella pneumoniae ATCC 13883 assessed as minimum modulatory concentration up to 32 uM measured after 16 hrs in presence of MIC/4 tetracycline; assay type: functional; conditions: ATCC 13883, 16 h, read-out: MEC
Pseudomonas aeruginosa [17] = experiment: Potentiation of geneticin-induced antibacterial activity against Pseudomonas aeruginosa ATCC BAA-2108 assessed as minimum modulatory concentration up to 32 uM measured after 16 hrs in presence of MIC/4 geneticin; assay type: functional; conditions: ATCC BAA-2108, 16 h, read-out: MEC
Pseudomonas aeruginosa [18] = experiment: Toxicity in Pseudomonas aeruginosa ATCC BAA-2108 up to 32 uM measured after 16 hrs; assay type: organism-based; conditions: in vitro
Escherichia coli [19] = experiment: Toxicity in Escherichia coli ATCC 43894 up to 32 uM measured after 16 hrs; assay type: organism-based
Pseudomonas aeruginosa [20] = experiment: Potentiation of ciprofloxacin-induced antibacterial activity against Pseudomonas aeruginosa ATCC BAA-2108 assessed as minimum modulatory concentration up to 32 uM measured after 16 hrs in presence of MIC/4 ciprofloxacin; assay type: functional; conditions: ATCC BAA-2108, 16 h, read-out: MEC
Enterococcus faecium [21] = experiment: Toxicity in Enterococcus faecium ATCC 700221 up to 32 uM measured after 16 hrs; assay type: organism-based; conditions: in vitro
Macrophage cell line [22] = experiment: Induction of IL-8 production in human PBMC-differentiated macrophages after 24 hrs by ELISA; assay type: cell-based
Streptococcus pyogenes [23] = experiment: Potentiation of tetracycline-induced antibacterial activity against Streptococcus pyogenes ATCC 14289 assessed as minimum modulatory concentration up to 32 uM measured after 16 hrs in presence of MIC/4 tetracycline; assay type: functional; conditions: ATCC 14289, 16 h, read-out: MEC
Enterococcus faecium [24] = experiment: Potentiation of ciprofloxacin-induced antibacterial activity against Enterococcus faecium ATCC 700221 assessed as minimum modulatory concentration up to 32 uM measured after 16 hrs in presence of MIC/4 ciprofloxacin; assay type: functional; conditions: ATCC 700221, 16 h, read-out: MEC
Streptococcus pyogenes [25] = experiment: Potentiation of ciprofloxacin-induced antibacterial activity against Streptococcus pyogenes ATCC 14289 assessed as minimum modulatory concentration up to 32 uM measured after 16 hrs in presence of MIC/4 ciprofloxacin; assay type: functional; conditions: ATCC 14289, 16 h, read-out: MEC
Staphylococcus aureus [26] = experiment: Potentiation of methicillin-induced antibacterial activity against Staphylococcus aureus ATCC 33592 assessed as minimum modulatory concentration up to 32 uM measured after 16 hrs in presence of MIC/4 methicillin; assay type: functional; conditions: ATCC 33592, 16 h, read-out: MEC
Macrophage cell line [27] = experiment: Induction of TNFalpha production in human PBMC-differentiated macrophages after 24 hrs by ELISA; assay type: cell-based
Enterococcus faecium [28] = experiment: Potentiation of methicillin-induced antibacterial activity against Enterococcus faecium ATCC 700221 assessed as minimum modulatory concentration up to 32 uM measured after 16 hrs in presence of MIC/4 methicillin; assay type: functional; conditions: ATCC 700221, 16 h, read-out: MEC
Escherichia coli [29] = experiment: Potentiation of ciprofloxacin-induced antibacterial activity against Escherichia coli ATCC 43894 assessed as minimum modulatory concentration up to 32 uM measured after 16 hrs in presence of MIC/4 ciprofloxacin; assay type: functional; conditions: ATCC 43894, 16 h, read-out: MEC
Streptococcus pyogenes [30] = experiment: Potentiation of erythromycin-induced antibacterial activity against Streptococcus pyogenes ATCC 14289 assessed as minimum modulatory concentration up to 32 uM measured after 16 hrs in presence of MIC/4 erythromycin; assay type: functional; conditions: ATCC 14289, 16 h, read-out: MEC
Macrophage cell line [31] = experiment: Induction of prostaglandin production in human PBMC-differentiated macrophages after 24 hrs by ELISA; assay type: cell-based
Macrophage cell line [32] = experiment: Induction of IL-1beta production in human PBMC-differentiated macrophages after 24 hrs by ELISA; assay type: cell-based

Row | Structure (SMILES) | Activity (Klebsiella pneumoniae [1]) | minimal effective concentration (Klebsiella pneumoniae [2]) | minimal effective concentration (Escherichia coli [3]) | minimal effective concentration (Escherichia coli [4]) | minimal effective concentration (Klebsiella pneumoniae [5]) | minimal effective concentration (Streptococcus pyogenes [6]) | minimal effective concentration (Klebsiella pneumoniae [7]) | minimal effective concentration (Staphylococcus aureus [8]) | minimal effective concentration (Escherichia coli [9]) | minimal effective concentration (Staphylococcus aureus [10]) | minimal effective concentration (Pseudomonas aeruginosa [11]) | minimal effective concentration (Escherichia coli [12]) | minimal effective concentration (Enterococcus faecium [13]) | minimal effective concentration (Klebsiella pneumoniae [14]) | minimal effective concentration (Pseudomonas aeruginosa [15]) | minimal effective concentration (Klebsiella pneumoniae [16]) | minimal effective concentration (Pseudomonas aeruginosa [17]) | Activity (Pseudomonas aeruginosa [18]) | Activity (Escherichia coli [19]) | minimal effective concentration (Pseudomonas aeruginosa [20]) | other results
1 | O=C(O)c1cnc2c(F)cc(F)cc2c1O | Non-Toxic | > 32 µM | > 32 µM | > 32 µM | > 32 µM | 1 µM | > 32 µM | 1 µM | > 32 µM | 4 µM | 4 µM | > 32 µM | 4 µM | > 32 µM | 8 µM | > 32 µM | > 32 µM | Non-Toxic | Non-Toxic | 4 µM | Activity (Enterococcus faecium [21]): Non-Toxic; Activity (Macrophage cell line [22]): Non-Toxic; minimal effective concentration (Streptococcus pyogenes [23]): 4 µM; minimal effective concentration (Enterococcus faecium [24]): > 32 µM; minimal effective concentration (Streptococcus pyogenes [25]): > 32 µM; minimal effective concentration (Staphylococcus aureus [26]): 0.5 µM; Activity (Macrophage cell line [27]): Non-Toxic; minimal effective concentration (Enterococcus faecium [28]): 0.25 µM; minimal effective concentration (Escherichia coli [29]): > 32 µM; minimal effective concentration (Streptococcus pyogenes [30]): 8 µM; Activity (Macrophage cell line [31]): Non-Toxic; Activity (Macrophage cell line [32]): Non-Toxic
2 | O=C(O)c1cc(-c2ccc(F)cc2F)ccc1O [DIFLUNISAL] | Non-Toxic | > 32 µM | > 32 µM | > 32 µM | > 32 µM | 16 µM | > 32 µM | > 32 µM | > 32 µM | > 32 µM | > 32 µM | > 32 µM | > 32 µM | > 32 µM | > 32 µM | > 32 µM | > 32 µM | Non-Toxic | Non-Toxic | > 32 µM | Activity (Enterococcus faecium [21]): Non-Toxic; Activity (Macrophage cell line [22]): Non-Toxic; minimal effective concentration (Streptococcus pyogenes [23]): > 32 µM; minimal effective concentration (Enterococcus faecium [24]): > 32 µM; minimal effective concentration (Streptococcus pyogenes [25]): > 32 µM; minimal effective concentration (Staphylococcus aureus [26]): 8 µM; Activity (Macrophage cell line [27]): Non-Toxic; minimal effective concentration (Enterococcus faecium [28]): 16 µM; minimal effective concentration (Escherichia coli [29]): > 32 µM; minimal effective concentration (Streptococcus pyogenes [30]): > 32 µM; Activity (Macrophage cell line [31]): Non-Toxic; Activity (Macrophage cell line [32]): Non-Toxic
3 | O=C(O)c1cc(-c2ccccc2)nc(-c2ccccc2)c1O | Non-Toxic | > 32 µM | > 32 µM | > 32 µM | > 32 µM | 2 µM | > 32 µM | 2 µM | > 32 µM | 8 µM | 8 µM | > 32 µM | 8 µM | > 32 µM | 8 µM | > 32 µM | > 32 µM | Non-Toxic | Non-Toxic | 8 µM | Activity (Enterococcus faecium [21]): Non-Toxic; Activity (Macrophage cell line [22]): Non-Toxic; minimal effective concentration (Streptococcus pyogenes [23]): 8 µM; minimal effective concentration (Enterococcus faecium [24]): > 32 µM; minimal effective concentration (Streptococcus pyogenes [25]): > 32 µM; minimal effective concentration (Staphylococcus aureus [26]): 4 µM; Activity (Macrophage cell line [27]): Non-Toxic; minimal effective concentration (Enterococcus faecium [28]): 2 µM; minimal effective concentration (Escherichia coli [29]): > 32 µM; minimal effective concentration (Streptococcus pyogenes [30]): 4 µM; Activity (Macrophage cell line [31]): Non-Toxic; Activity (Macrophage cell line [32]): Non-Toxic
